Data: paper PMC8596838, “Xylose‐Configured Cyclophellitols as Selective Inhibitors for Glucocerebrosidase” (Chembiochem, 2021)

What was measured:
Type in all cases: biochemical
Conditions in all cases: cell lysate, 30 min incubation
GBA = target: T1, GBA (Homo sapiens, UniProt P04062); assay: Competitive ABPP (cABPP) with ABP 10 in HEK293T cell lysates, GBA
T1 construct: HEK293T cells that contain endogenous GBA; endogenous in cells; host or cells: HEK293T (ATCC CRL-3216) overexpressing GBA2 and GBA3
T1 sequence (P04062 40-536): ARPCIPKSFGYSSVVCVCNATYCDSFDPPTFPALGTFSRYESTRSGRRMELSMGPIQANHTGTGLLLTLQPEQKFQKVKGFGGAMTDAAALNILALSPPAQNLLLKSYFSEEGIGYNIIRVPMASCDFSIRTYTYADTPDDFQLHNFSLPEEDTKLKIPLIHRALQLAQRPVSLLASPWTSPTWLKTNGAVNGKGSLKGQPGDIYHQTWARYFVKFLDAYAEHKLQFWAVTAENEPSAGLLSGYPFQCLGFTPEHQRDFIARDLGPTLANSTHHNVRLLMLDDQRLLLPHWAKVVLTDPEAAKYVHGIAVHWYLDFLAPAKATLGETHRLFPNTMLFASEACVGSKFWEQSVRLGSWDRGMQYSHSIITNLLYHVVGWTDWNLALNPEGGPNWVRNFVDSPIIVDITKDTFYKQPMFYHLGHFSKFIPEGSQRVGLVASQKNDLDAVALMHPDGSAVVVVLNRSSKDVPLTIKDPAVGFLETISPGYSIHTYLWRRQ
Protocol: (§1) In the first instance, the inhibitory potency of 1 and 2 for GBA, GBA2, and GBA3 was assessed by competitive activity‐based protein profiling (cABPP). For this, we first generated HEK293T cells that contain endogenous GBA and overexpress human GBA2 and GBA3.
(§2) Figure 3 Selectivity of compounds visualized by competitive ABPP labeling of β‐D‐glucosidase. Lysates of HEK293T cells expressing human GBA, GBA2 and GBA3 were incubated with compounds 1–5 at indicated concentrations for 30 min, following by cABPP with ABP 10.
(§3) ABP labeling procedure: Glycosidases were labeled with excess fluorescent ABPs at optimum conditions. ABP labeling was performed at 37 °C for 30 min for all materials (if not otherwise stated), in a total sample volume of 20–40 μL and 0.5–1 % DMSO concentration. GBA was labeled with 200 nM ABP 9 (pH 5.2, 0.1 % (v/v) Triton‐100, 0.2 % (w/v) sodium taurocholate), or labeled together with GBA2 using 200 nM β‐D‐glucose‐configured aziridine ABP 10 at pH 5.8, or labeling together with GBA2 and GBA3 using 200 nM β‐D‐glucose‐configured aziridine ABP 10 at pH 6.0. After ABP incubation, proteins were denatured by boiling the samples with 5× Laemmli buffer (50 % (v/v) 1 M Tris‐HCl, pH 6.8, 50 % (v/v) 100 % glycerol, 10 % (w/v) DTT, 10 % (w/v) SDS, 0.01 % (w/v) bromophenol blue) for 5 min at 98 °C, and separated by electrophoresis on 10 % (w/v) SDS‐PAGE gels running continuously at 90 V. Wet slab‐gels were scanned on fluorescence using the Typhoon FLA 9500 (GE Healthcare) at λEX 473 nm and λEM≥510 nm for green fluorescent ABP 8; and at λEX 635 nm and λEM≥665 nm for ABP 6, 9 and 10. ABP‐emitted fluorescence was quantified using ImageQuant software (GE Healthcare, Chicago, IL, USA) and curve‐fitted using Prism 8.0 (GraphPad Software). After fluorescence scanning, SDS‐PAGE gels were stained for total protein with Coomassie G250 and scanned on a ChemiDoc MP imager (Bio‐Rad, Hercules, CA, USA).[25]

GBA3 = target: T2, GBA3 (Homo sapiens, UniProt Q9H227); assay: Competitive ABPP (cABPP) with ABP 10 in HEK293T cell lysates, GBA3
T2 construct: expressed in transfected cells; host or cells: HEK293T (GBA/GBA2 KO background for the fluorogenic assay; endogenous-GBA background with GBA2 and GBA3 overexpressed for ABPP and intact-cell assays)
T2 sequence (Q9H227 1-469): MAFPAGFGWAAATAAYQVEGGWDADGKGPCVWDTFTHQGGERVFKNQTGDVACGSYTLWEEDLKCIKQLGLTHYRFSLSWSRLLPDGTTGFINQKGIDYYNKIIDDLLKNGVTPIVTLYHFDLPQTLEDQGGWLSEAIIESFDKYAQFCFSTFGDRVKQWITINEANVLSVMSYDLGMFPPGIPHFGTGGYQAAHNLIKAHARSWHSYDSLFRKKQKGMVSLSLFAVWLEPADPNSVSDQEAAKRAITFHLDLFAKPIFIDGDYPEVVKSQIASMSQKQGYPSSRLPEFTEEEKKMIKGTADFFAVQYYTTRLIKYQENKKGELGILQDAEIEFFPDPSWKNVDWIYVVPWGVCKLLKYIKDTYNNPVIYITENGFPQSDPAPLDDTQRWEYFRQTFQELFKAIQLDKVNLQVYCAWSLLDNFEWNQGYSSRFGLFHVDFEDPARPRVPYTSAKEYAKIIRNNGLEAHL
Protocol: as §1, §2, §3

GBA2 = target: T3, GBA2 (Homo sapiens, UniProt Q9HCG7); assay: Competitive ABPP (cABPP) with ABP 10 in HEK293T cell lysates, GBA2
T3 construct: expressed in transfected cells; host or cells: HEK293T (GBA/GBA2 KO background for the fluorogenic assay; endogenous-GBA background with GBA2 and GBA3 overexpressed for ABPP and intact-cell assays)
T3 sequence (Q9HCG7 1-927): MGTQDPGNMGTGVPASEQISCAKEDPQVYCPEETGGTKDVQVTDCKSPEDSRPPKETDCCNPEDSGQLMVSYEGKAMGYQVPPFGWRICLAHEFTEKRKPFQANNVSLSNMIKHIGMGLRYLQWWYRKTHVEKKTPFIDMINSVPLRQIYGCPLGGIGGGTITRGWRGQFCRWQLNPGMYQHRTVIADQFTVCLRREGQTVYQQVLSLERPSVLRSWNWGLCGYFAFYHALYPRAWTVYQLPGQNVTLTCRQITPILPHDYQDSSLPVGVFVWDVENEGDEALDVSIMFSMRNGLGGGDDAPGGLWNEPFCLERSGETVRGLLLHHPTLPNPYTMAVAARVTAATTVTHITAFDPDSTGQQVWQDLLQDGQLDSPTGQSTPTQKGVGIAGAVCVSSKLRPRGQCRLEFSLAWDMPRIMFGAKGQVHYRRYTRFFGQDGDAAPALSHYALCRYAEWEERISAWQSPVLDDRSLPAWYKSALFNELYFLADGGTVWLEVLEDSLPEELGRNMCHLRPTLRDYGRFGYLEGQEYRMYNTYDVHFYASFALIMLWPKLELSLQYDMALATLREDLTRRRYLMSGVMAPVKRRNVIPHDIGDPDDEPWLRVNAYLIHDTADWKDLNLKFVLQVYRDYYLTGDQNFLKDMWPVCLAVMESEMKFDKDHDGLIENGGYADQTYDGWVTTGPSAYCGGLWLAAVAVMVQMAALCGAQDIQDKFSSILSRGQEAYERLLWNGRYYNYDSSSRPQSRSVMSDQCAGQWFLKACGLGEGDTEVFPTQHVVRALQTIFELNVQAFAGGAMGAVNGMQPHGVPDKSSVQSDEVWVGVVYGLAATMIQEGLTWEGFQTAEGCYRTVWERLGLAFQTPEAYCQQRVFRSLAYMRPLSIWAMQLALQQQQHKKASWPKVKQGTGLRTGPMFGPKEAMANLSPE
Protocol: as §1, §2, §3

| competition of ABP 10 labeling of GBA2 (GBA2) | SMILES | concentration competing ABP 10 labeling of GBA (GBA) [µM] | competition of ABP 10 labeling of GBA3 (GBA3) | concentration competing ABP 10 labeling of GBA2 (GBA2) [µM] | competition of ABP 10 labeling of GBA (GBA) |
| --- | --- | --- | --- | --- | --- |
| but not that of GBA2 or GBA3 | O[C@@H]1[C@@H](O)[C@H](O)C[C@H]2O[C@@H]12 [compound 1, xylo‐cyclophellitol] | 10 to 100 | but not that of GBA2 or GBA3 |  |  |
|  | O[C@@H]1[C@@H](O)[C@H](O)C[C@H]2N[C@@H]12 [compound 2, β‐D‐xylo‐Cyclophellitol aziridine] | 1 to 10 |  | 100 |  |
|  | OC[C@@H]1[C@@H](O)[C@H](O)[C@@H](O)[C@@H]2O[C@H]12 [compound 3, cyclophellitol] | 0.1 to 1 | with less potency | 0.1 to 1 |  |
|  | OC[C@@H]1[C@@H](O)[C@H](O)[C@@H](O)[C@@H]2N[C@H]12 [compound 4, cyclophellitol aziridine, reference compound] | 0.1 to 1 | with less potency | 0.1 to 1 |  |
|  | [N-]=[N+]=NCCCCCCCCN1[C@H]2[C@H](O)[C@@H](O)[C@H](O)C[C@H]21 (stereo partly shown) [compound 5] |  | greatly enhances inhibitory potency |  | greatly enhances inhibitory potency |
